The results in this text go back to PubChem BioAssay (NCI).

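In this assay, cells in 96-well plates receive the compound at five concentrations for 48 hours. Endpoints are linearly interpolated between the surrounding concentrations. TGI: total growth inhibition.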

For the first assay, the system named is TK-10 renal. Put plainly: growth of human tumour cells (NCI), 48 h.
`CCOC(C[C@H](O)[C@H]1COC(=S)S1)OCC` displayed a TGI of over 100 µM.
In turn, `CCCCCCn1c(SCC)c2ccccc2c1-c1nc(F)nc(F)n1` yielded a TGI of over 100 µM.
`CN(C(=O)C12C3C4C1C1C2C3C41I)C(C)(C)C` (stereo not drawn): the TGI was over 100 µM.
On the same count and under the same terms, the value for `Cn1c(O)c(C(=O)Nc2cccs2)c(=O)[nH]c1=S` was 61.6 µM; that for `CC(=O)/C(=C\c1ccco1)C(=O)Nc1ccccc1` was over 100 µM.
Still for that read-out and setting: the value for `CC#COP(=O)(OCC)OCC` was over 100 µM; that for `C=CCONC(=O)c1ccc(Cl)cc1` was over 100 µM; that for `O=C(CC1Sc2ccccc2NC1=O)Nc1cc(Cl)ccc1Cl` (stereo not drawn) was over 100 µM.
On the same count and under the same terms, the value for `COc1cc(/C=C/C(=O)c2sc(-n3nc(-c4ccccc4)cc3-c3ccccc3)nc2C)ccc1O` was over 100 µM; that for `O=C(CCn1[nH]c(=O)c(Cl)c(Cl)c1=O)NOCCCc1ccccc1` was over 100 µM; that for `CC(C)=CCCC1(C)C=Cc2c(c(C)cc3c2[nH]c2cc(O)ccc23)O1` (stereo not drawn) was over 25 µM.
With `COc1cc(NC(C)=O)c2[nH]c3c(C)cc(NC(C)=O)c(C)c3c2c1`, the TGI was over 100 µM.
Same read-out and setting: the value for `COc1cc(/C=C\c2ccccn2)cc(OC)c1OC` was over 100 µM.
The same measure, in the same setting: the value for `O=P(O)(OCC(O)O)OCC(O)O` was over 100 µM; that for `CCOC(=O)CSc1ccnc(=O)[nH]1` was over 100 µM; that for `c1ccc(Nc2nnc(CSc3nc(-c4ccccc4)c(-c4ccccc4)[nH]3)s2)cc1` was over 100 µM.

The next assay deals with SF-295 CNS. The assay is described as follows: growth of human tumour cells (NCI), 48 h.
`O=C1C/C(=C/c2ccc(/C=C3/CC(=O)N(c4cccc(Br)c4)C3=O)cc2)C(=O)N1c1cccc(Br)c1` had a TGI of over 100 µM.
The same measure, in the same setting: the value for `CCOC(C[C@H](O)[C@H]1COC(=S)S1)OCC` was over 100 µM; that for `O=C(c1ccc(Cl)cc1Cl)N(C(=O)N1CCC(c2ccccc2)CC1)c1ccccc1` was over 100 µM; that for `CCCCCCn1c(SCC)c2ccccc2c1-c1nc(F)nc(F)n1` was over 100 µM.
On the same count and under the same terms, the value for `CN(C(=O)C12C3C4C1C1C2C3C41I)C(C)(C)C` (stereo not drawn) was over 100 µM; that for `Cn1c(O)c(C(=O)Nc2cccs2)c(=O)[nH]c1=S` was 38.1 µM; that for `CC(=O)/C(=C\c1ccco1)C(=O)Nc1ccccc1` was over 100 µM.
Same read-out and setting: the value for `NCC1(N2CCOCC2)C2CCCC21CO` (stereo not drawn) was over 100 µM.
`CC#COP(=O)(OCC)OCC` displayed a TGI of over 100 µM.
The same measure, in the same setting: the value for `C=CCONC(=O)c1ccc(Cl)cc1` was over 100 µM; that for `O=C(CC1Sc2ccccc2NC1=O)Nc1cc(Cl)ccc1Cl` (stereo not drawn) was over 100 µM.
Still for that read-out and setting: the value for `COc1cc(/C=C/C(=O)c2sc(-n3nc(-c4ccccc4)cc3-c3ccccc3)nc2C)ccc1O` was over 100 µM; that for `O=C(CCn1[nH]c(=O)c(Cl)c(Cl)c1=O)NOCCCc1ccccc1` was over 100 µM.
The same measure, in the same setting: the value for `COc1cc(NC(C)=O)c2[nH]c3c(C)cc(NC(C)=O)c(C)c3c2c1` was over 100 µM; that for `COc1cc(/C=C\c2ccccn2)cc(OC)c1OC` was over 100 µM; that for `O=P(O)(OCC(O)O)OCC(O)O` was over 100 µM.
In turn, `CCOC(=O)CSc1ccnc(=O)[nH]1` had a TGI of over 100 µM.
Still for that read-out and setting: the value for `c1ccc(Nc2nnc(CSc3nc(-c4ccccc4)c(-c4ccccc4)[nH]3)s2)cc1` was 36 µM.

A further assay concerns NCI-H226 lung. The assay is described as follows: growth of human tumour cells (NCI), 48 h.
`O=C1C/C(=C/c2ccc(/C=C3/CC(=O)N(c4cccc(Br)c4)C3=O)cc2)C(=O)N1c1cccc(Br)c1`: the TGI is over 100 µM.
On the same count and under the same terms, the value for `CCOC(C[C@H](O)[C@H]1COC(=S)S1)OCC` was over 100 µM.
On the same count and under the same terms, the value for `O=C(c1ccc(Cl)cc1Cl)N(C(=O)N1CCC(c2ccccc2)CC1)c1ccccc1` was over 100 µM; that for `CCCCCCn1c(SCC)c2ccccc2c1-c1nc(F)nc(F)n1` was over 100 µM.
Still for that read-out and setting: the value for `CN(C(=O)C12C3C4C1C1C2C3C41I)C(C)(C)C` (stereo not drawn) was over 94.6 µM.
Take `Cn1c(O)c(C(=O)Nc2cccs2)c(=O)[nH]c1=S`: the TGI was found to be 42.6 µM.
Still for that read-out and setting: the value for `NCC1(N2CCOCC2)C2CCCC21CO` (stereo not drawn) was over 100 µM; that for `CC#COP(=O)(OCC)OCC` was over 100 µM.
The compound `O=C(CC1Sc2ccccc2NC1=O)Nc1cc(Cl)ccc1Cl` (stereo not drawn) had a TGI of over 100 µM.
As for `COc1cc(/C=C/C(=O)c2sc(-n3nc(-c4ccccc4)cc3-c3ccccc3)nc2C)ccc1O`, the TGI was over 100 µM.
On the same count and under the same terms, the value for `O=C(CCn1[nH]c(=O)c(Cl)c(Cl)c1=O)NOCCCc1ccccc1` was over 100 µM.
Same read-out and setting: the value for `CC(C)=CCCC1(C)C=Cc2c(c(C)cc3c2[nH]c2cc(O)ccc23)O1` (stereo not drawn) was over 25 µM.
On the same count and under the same terms, the value for `COc1cc(NC(C)=O)c2[nH]c3c(C)cc(NC(C)=O)c(C)c3c2c1` was over 100 µM; that for `COc1cc(/C=C\c2ccccn2)cc(OC)c1OC` was over 100 µM.
Consider `c1ccc(Nc2nnc(CSc3nc(-c4ccccc4)c(-c4ccccc4)[nH]3)s2)cc1`, for which the TGI is 33 µM.

A further assay has as its system K-562 leukemia. Put plainly: growth of human tumour cells (NCI), 48 h.
In the case of `O=C1C/C(=C/c2ccc(/C=C3/CC(=O)N(c4cccc(Br)c4)C3=O)cc2)C(=O)N1c1cccc(Br)c1`, the TGI was over 100 µM.
On the same count and under the same terms, the value for `O=C(c1ccc(Cl)cc1Cl)N(C(=O)N1CCC(c2ccccc2)CC1)c1ccccc1` was over 100 µM; that for `CCCCCCn1c(SCC)c2ccccc2c1-c1nc(F)nc(F)n1` was over 100 µM.
With `CN(C(=O)C12C3C4C1C1C2C3C41I)C(C)(C)C` (stereo not drawn), the TGI was over 100 µM.
Still for that read-out and setting: the value for `Cn1c(O)c(C(=O)Nc2cccs2)c(=O)[nH]c1=S` was over 100 µM.
The same measure, in the same setting: the value for `CC(=O)/C(=C\c1ccco1)C(=O)Nc1ccccc1` was over 100 µM; that for `NCC1(N2CCOCC2)C2CCCC21CO` (stereo not drawn) was over 100 µM; that for `CC#COP(=O)(OCC)OCC` was over 100 µM.
On the same count and under the same terms, the value for `C=CCONC(=O)c1ccc(Cl)cc1` was over 100 µM.
With `O=C(CC1Sc2ccccc2NC1=O)Nc1cc(Cl)ccc1Cl` (stereo not drawn), the TGI was over 100 µM.
Still for that read-out and setting: the value for `COc1cc(/C=C/C(=O)c2sc(-n3nc(-c4ccccc4)cc3-c3ccccc3)nc2C)ccc1O` was over 100 µM; that for `O=C(CCn1[nH]c(=O)c(Cl)c(Cl)c1=O)NOCCCc1ccccc1` was over 100 µM; that for `CC(C)=CCCC1(C)C=Cc2c(c(C)cc3c2[nH]c2cc(O)ccc23)O1` (stereo not drawn) was over 25 µM.
Same read-out and setting: the value for `COc1cc(NC(C)=O)c2[nH]c3c(C)cc(NC(C)=O)c(C)c3c2c1` was over 100 µM; that for `COc1cc(/C=C\c2ccccn2)cc(OC)c1OC` was over 100 µM.
On the same count and under the same terms, the value for `O=P(O)(OCC(O)O)OCC(O)O` was over 100 µM; that for `CCOC(=O)CSc1ccnc(=O)[nH]1` was over 100 µM.

A further assay has as its system OVCAR-3 ovarian. Put plainly: growth of human tumour cells (NCI), 48 h.
Take `O=C1C/C(=C/c2ccc(/C=C3/CC(=O)N(c4cccc(Br)c4)C3=O)cc2)C(=O)N1c1cccc(Br)c1`: the TGI is over 100 µM.
In the case of `CCOC(C[C@H](O)[C@H]1COC(=S)S1)OCC`, the TGI was over 100 µM.
